Experimental data reported in patent publication US10201523B2, “Use of wilforlide A for overcoming chemotherapy resistance” (WESTERN UNIVERSITY OF HEALTH SCIENCES, priority 2013, dated 2019).
“And” between values parts separate entries of the source, which are not always exact repeats. Equal entries are not always repeated. Where two headings read alike, the source gives them in different places.

Tests used:
PC3 = test: SRB cell viability assay, docetaxel with/without wilforlide A pretreatment; conditions: PC3
Experimental: Following the 72 hour wilforlide A treatment, a sulforhodamine B (SRB) assay was used to quantitate living cells. To perform the assay, the wilforlide A media was aspirated from each well, and replaced with a 10% solution of cold trichloroacetic acid (TCA) (Cat #: T6399, purchased from Sigma-Aldrich), and incubated for one hour at 4° C. After the TCA incubation, the TCA solution was aspirated, and the cells were washed five times with tap water. After removing the last wash, the plates were left with lids off at room temperature until the surfaces were dry, which took one to two hours. Then 50 μl of a 0.4% solution of sul-forhodamine B (SRB) sodium salt (Cat #: S9012, purchased from Sigma-Aldrich) was added to each well and the plates were incubated at room temperature for 20 to 30 minutes. Afterwards, the wells were washed five times with a 1% acetic acid solution in 10 mM TRIS base (Cat #: 161-0719, purchased from Bio-Rad Laboratories, Hercules, Calif.). The plates were subsequently left to dry for several hours or overnight. SRB that remained in the dried wells was solubilized by adding 100 μl of SRB solubilization solution (10 mM TRIS base) to each well, and placing the plates either on a gently-moving shaker or letting the plates remain stationary at room temperature until the SRB dissolves, which takes about five to ten minutes. The amount of SRB in each well, which correlated directly to the number of living cells at fixation, was determined spectrophotometrically at an absorbance of 565 nm by a microplate reader.
In these comparisons, the in vitro IC50 of a tested chemotherapeutic drug (D) in cell culture was compared to the drug's IC50 when drug treatment followed pretreatment of the cells with wilforlide A (Purchased from PI & PI Technology Inc. of Guangzhou, China or the National Institutes for Food and Drug Control in Beijing, China).
Triplicate wells were assigned to each experimental condition tested, and a 24 hour recovery period for the cells following the seeding of the wells was allowed. During the recovery period, the cells were incubated at 37° C. and 5% CO2.
At the end of the two hour pre-treatment period, 50 μl aliquots of the desired chemotherapeutic drug RPMI medium were added according to the amounts provided in Table 2.
After adding the various doses of chemotherapeutic drugs, as described above, the cells were incubated for an additional 72 hours under the same temperature and atmospheric conditions used for the pre-treatment step.
The cells were then incubated for 72 hours at 37° C. and 5% CO2. After the 72 hour incubation, sulforhodamine B (SRB) assays were performed as described in Example 1 to quantitate living cells.

DU-145 = test: SRB cell viability assay, docetaxel IC50 with/without wilforlide A pretreatment; assay type: cell-based; conditions: for IC50: Homo sapiens
[1] = wilforlide A 0.6 μg/ml pre-Tx, docetaxel 0.1 nM 72 h
[2] = wilforlide A 0.6 μg/ml pre-Tx, docetaxel 0.333 nM 72 h
[3] = wilforlide A 0.6 μg/ml pre-Tx, docetaxel 1 nM 72 h
[4] = wilforlide A 0.6 μg/ml pre-Tx, docetaxel 3.33 nM 72 h
[5] = wilforlide A 0.6 μg/ml pre-Tx, docetaxel 10 nM 72 h
[6] = wilforlide A 0.6 μg/ml pre-Tx, docetaxel 33.3 nM 72 h
[7] = wilforlide A 0.6 μg/ml pre-Tx, docetaxel 100 nM 72 h
[8] = wilforlide A 2.5 μg/ml pre-Tx, docetaxel 0.001 nM 72 h
[9] = wilforlide A 2.5 μg/ml pre-Tx, docetaxel 0.1 nM 72 h
[10] = wilforlide A 2.5 μg/ml pre-Tx, docetaxel 0.333 nM 72 h
[11] = wilforlide A 2.5 μg/ml pre-Tx, docetaxel 1 nM 72 h
[12] = wilforlide A 2.5 μg/ml pre-Tx, docetaxel 3.33 nM 72 h
[13] = wilforlide A 2.5 μg/ml pre-Tx, docetaxel 10 nM 72 h
[14] = wilforlide A 2.5 μg/ml pre-Tx, docetaxel 33.3 nM 72 h
[15] = wilforlide A 2.5 μg/ml pre-Tx, docetaxel 100 nM 72 h
[16] = wilforlide A […] pre-Tx, docetaxel 0.001 nM 72 h
[17] = wilforlide A […] pre-Tx, docetaxel 0.1 nM 72 h
[18] = wilforlide A […] pre-Tx, docetaxel 0.333 nM 72 h
[19] = wilforlide A […] pre-Tx, docetaxel 1 nM 72 h
[20] = wilforlide A […] pre-Tx, docetaxel 3.33 nM 72 h
[21] = wilforlide A […] pre-Tx, docetaxel 10 nM 72 h
[22] = wilforlide A […] pre-Tx, docetaxel 33.3 nM 72 h
[23] = wilforlide A […] pre-Tx, docetaxel 100 nM 72 h

CC(=O)O[C@@]12CO[C@@H]1C[C@H](O)[C@@]1(C)C(=O)[C@H](O)C3=C(C)[C@@H](OC(=O)[C@H](O)[C@@H](NC(=O)OC(C)(C)C)c4ccccc4)C[C@@](O)([C@@H](OC(=O)c4ccccc4)[C@H]21)C3(C)C [docetaxel]
mean A (PC3; wilforlide A 0.6 μg/ml pre-Tx, docetaxel 0.001 nM 72 h): 1.807
A at 565 nm (PC3; wilforlide A 0.6 μg/ml pre-Tx, docetaxel 0.001 nM 72 h, background = 0.043): 1.812 and 1.840 and 1.769
% viable (PC3; [1]): 102.3%
mean A (PC3; [1]): 1.848
A at 565 nm (PC3; wilforlide A 0.6 μg/ml pre-Tx, docetaxel 0.1 nM 72 h, background = 0.043): 1.855 and 1.874 and 1.816
% viable (PC3; [2]): 99.3%
mean A (PC3; [2]): 1.794
A at 565 nm (PC3; wilforlide A 0.6 μg/ml pre-Tx, docetaxel 0.333 nM 72 h, background = 0.043): 1.759 and 1.804 and 1.820
% viable (PC3; [3]): 72.9%
mean A (PC3; [3]): 1.317
A at 565 nm (PC3; wilforlide A 0.6 μg/ml pre-Tx, docetaxel 1 nM 72 h, background = 0.043): 1.303 and 1.386 and 1.263
% viable (PC3; [4]): 44.9%
mean A (PC3; [4]): 0.811
A at 565 nm (PC3; wilforlide A 0.6 μg/ml pre-Tx, docetaxel 3.33 nM 72 h, background = 0.043): 0.843 and 0.814 and 0.777
% viable (PC3; [5]): 22.7%
mean A (PC3; [5]): 0.409
A at 565 nm (PC3; wilforlide A 0.6 μg/ml pre-Tx, docetaxel 10 nM 72 h, background = 0.043): 0.408 and 0.421 and 0.400
% viable (PC3; [6]): 17.5%
mean A (PC3; [6]): 0.316
A at 565 nm (PC3; wilforlide A 0.6 μg/ml pre-Tx, docetaxel 33.3 nM 72 h, background = 0.043): 0.302 and 0.323
% viable (PC3; [7]): 16.5%
mean A (PC3; [7]): 0.299
A at 565 nm (PC3; wilforlide A 0.6 μg/ml pre-Tx, docetaxel 100 nM 72 h, background = 0.043): 0.290 and 0.287 and 0.320
% viable (PC3; [8]): 100.0%
mean A (PC3; [8]): 1.752
% viable (PC3; [9]): 101.9%
mean A (PC3; [9]): 1.786
% viable (PC3; [10]): 94.1%
mean A (PC3; [10]): 1.648
A at 565 nm (PC3; wilforlide A 2.5 μg/ml pre-Tx, docetaxel 0.333 nM 72 h, background = 0.044): 1.672
% viable (PC3; [11]): 69.8%
mean A (PC3; [11]): 1.222
A at 565 nm (PC3; wilforlide A 2.5 μg/ml pre-Tx, docetaxel 1 nM 72 h, background = 0.044): 1.201
% viable (PC3; [12]): 43.9%
mean A (PC3; [12]): 0.769
A at 565 nm (PC3; wilforlide A 2.5 μg/ml pre-Tx, docetaxel 3.33 nM 72 h, background = 0.044): 0.810
% viable (PC3; [13]): 23.0%
mean A (PC3; [13]): 0.403
A at 565 nm (PC3; wilforlide A 2.5 μg/ml pre-Tx, docetaxel 10 nM 72 h, background = 0.044): 0.402
% viable (PC3; [14]): 19.2%
mean A (PC3; [14]): 0.336
A at 565 nm (PC3; wilforlide A 2.5 μg/ml pre-Tx, docetaxel 33.3 nM 72 h, background = 0.044): 0.358
% viable (PC3; [15]): 18.4%
mean A (PC3; [15]): 0.322
A at 565 nm (PC3; wilforlide A 2.5 μg/ml pre-Tx, docetaxel 100 nM 72 h, background = 0.044): 0.318
% viable (PC3; [16]): 100.0%
mean A (PC3; [16]): 1.957
% viable (PC3; [17]): 100.4%
mean A (PC3; [17]): 1.965
% viable (PC3; [18]): 92.2%
mean A (PC3; [18]): 1.804
% viable (PC3; [19]): 67.0%
mean A (PC3; [19]): 1.311
% viable (PC3; [20]): 41.7%
mean A (PC3; [20]): 0.816
% viable (PC3; [21]): 23.9%
mean A (PC3; [21]): 0.467
% viable (PC3; [22]): 19.1%
mean A (PC3; [22]): 0.373
% viable (PC3; [23]): 18.4%
mean A (PC3; [23]): 0.361
IC50 (PC3; read-out: Drug IC50 after wilforlide A pre-Tx, pre-Tx amount of wilforlide A printed as none added): 1.61 nM
IC50 (DU-145; 72 h, read-out: Drug IC50 no pre-Tx): > 100 nM
IC50 (DU-145; wilforlide A 2.5 μg/ml pre-Tx, read-out: Drug IC50 after wilforlide A pre-Tx): 42.5 nM
CE (DU-145; chemosensitization effect, wilforlide A 2.5 μg/ml pre-Tx): >2.35
